The values below come from patent US6407130B1, “Carboxamide-substituted benzimidazoles having tryptase-inhibiting activity” (Boehringer Ingelheim Pharma KG, priority 1999, dated 2002).

pIC50: −log10 of the molar value. Where a name gives a salt, the structure may show the parent alone.

In general, pIC50 refers to the negative decadic logarithm of the IC50, by convention in mol/L.

This assay deals with T1, rh beta tryptase (Homo sapiens, UniProt Q15661).
T1 construct: purchased Promega
T1 sequence (Q15661 31-275): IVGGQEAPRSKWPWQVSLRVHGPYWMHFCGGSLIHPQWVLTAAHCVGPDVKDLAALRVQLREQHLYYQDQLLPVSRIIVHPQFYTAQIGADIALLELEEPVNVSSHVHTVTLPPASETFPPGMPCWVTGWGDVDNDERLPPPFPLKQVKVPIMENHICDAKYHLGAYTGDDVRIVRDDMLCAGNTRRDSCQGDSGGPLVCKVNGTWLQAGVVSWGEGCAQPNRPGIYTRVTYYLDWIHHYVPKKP
Put plainly: tryptase inhibition test (cleavage of N-p-tosyl-Gly-Pro-Lys-para-nitroaniline, p-nitroaniline measured at 405 nm). The assay is classed as biochemical. As to conditions: Tris HCl buffer pH 7.4 with calcium and heparin; substrate 0.6 mM; 5 minutes' pre-incubation, 5 minutes incubation at 37° C. As to the method: The compounds according to the invention are characterised by their tryptase-inhibiting activity. This ability to inhibit tryptase was investigated using the test described as follows. The measurement is carried out in Tris HCl buffer (100 mM), which additionally contains calcium (5 mM) and heparin ([…]), at pH 7.4. The standard used is rh beta tryptase which may be obtained commercially from Promega, for example. The substrate used is N-p-tosyl-Gly-Pro-Lys-para-nitroaniline in a concentration of 0.6 mM. The substrate is digested with tryptase to form p-nitroaniline which can be measured at 405 nm. Usually, an incubation period of 5 minutes and an incubation temperature of 37° C. are chosen. The enzyme activity used is 0.91 U/ml. The measurements are carried out in an Autoanalyser (Cobas Bio) made by Hofmann LaRoche. The potential inhibitory substances are used in concentrations of 10 μM in the screening, the inhibition of the tryptase being given in percent. The IC50 is determined at over 70% inhibition (concentration at which 50% of the enzyme activity is inhibited). After 5 minutes' pre-incubation of the potential inhibitory substances, the substrate is added to start the reaction, the formation of p-nitroaniline being taken as a measurement of the enzyme activity after 5 minutes, after testing the linearity.
With “N-{2-[2-(4-Amidinophenyl)-ethyl]-1- methyl-benzimidazol-5-yl}-N-( - naphthyl)-[4- dimethylaminobenzylamino- acetamide]-dihydrochloride [Example 21]”, the pIC50 is 7.96.

On to `Cn1c(CCc2ccc(C(=N)N)cc2)nc2cc(N(Cc3ccccc3)C(=O)CCCCNC(=N)N)ccc21` [Example 34, N-{2-[2-(4-Amidinophenyl)-ethyl]-1-methyl-benzimidazol-5-yl}-N-benzyl-[5-guanidino-pentanoic acid amide]-dihydrochloride], for which the negative logarithm of the IC50 (pIC50) was 7.37. Take `Cn1c(CCc2ccc(C(=N)N)cc2)nc2cc(N(Cc3cccc4ccccc34)C(=O)CNCc3cccc(N)c3)ccc21` [Example 28, N-{2-[2-(4-Amidinophenyl)-ethyl]-1-methyl-benzimidazol-5-yl}-N-( - naphthylmethy)-[3-aminobenzylamino-acetamide]-trihydrochloride]: the pIC50 is 8.00.

Consider `Cn1c(CCc2ccc(C(=N)N)cc2)nc2cc(N(Cc3cccc4ccccc34)C(=O)CO)ccc21` [Example 77, N-{2-[2-(4-Amidinophenyl)-ethyl]-1-methyl-benzimidazol-5-yl}-N-(- naphthylmethyl)-[3-hydroxy-acetamide]-hydrochloride], for which the pIC50 was 6.96.

Regarding `Cn1c(CCc2ccc(C(=N)N)cc2)nc2cc(N(Cc3ccc4ccccc4c3)C(=O)CCc3ccc(C(=N)N)cc3)ccc21` [Example 11, N-{2-[2-(4-Amidinophenyl)-ethyl]-1-methyl-benzimidazol-5-yl}-N-β-naphthylmethyl-[3-(4-amidinophenyl)-propionamide]-dihydrochloride], the pIC50 was 7.82.

Regarding `Cn1c(CCc2ccc(C(=N)N)cc2)nc2cc(N(Cc3cccc4ccccc34)C(=O)CCCCNC(=N)N)ccc21` [Example 27, N-{2-[2-(4-Amidinophenyl)-ethyl]-1-methyl-benzimidazol-5-yl}-N-(- naphthylmethyl)-[5-guanidino-pentanoic acid amide]-dihydrochloride], the pIC50 is 7.59. `Cn1c(CCc2ccc(C(=N)N)cc2)nc2cc(N(Cc3cccc4ccccc34)C(=O)COCc3ccc([N+](=O)[O-])cc3)ccc21` [Example 75, N-{2-[2-(4-Amidinophenyl)-ethyl]-1-methyl-benzimidazol-5-yl}-N-(-- naphthylmethyl)-[2-(4-nitrobenzyloxy)-acetamide]-hydrochloride]: the negative logarithm of the IC50 (pIC50) is 7.76. Next, `CN(C)CCOCC(=O)N(Cc1cccc2ccccc12)c1ccc2c(c1)nc(CCc1ccc(C(=N)N)cc1)n2C` [Example 59, N-{2-[2-(4-Amidinophenyl)-ethyl]-1-methyl-benzimidazol-5-yl}-N-(α-naphthylmethyl)-[2-(2-dimethylaminoethoxy)-acetamide]-dihydrochloride]: 7.18; `CN(CC(=O)N(Cc1cccc2ccccc12)c1ccc2c(c1)nc(CCc1ccc(C(=N)N)cc1)n2C)Cc1ccccc1` [Example 63, N-{2-[2-(4-Amidinophenyl)-ethyl]-1-methyl-benzimidazol-5-yl}-N-( - naphthylmethyl)-[2-(N-benzyl-N-methylamino)-acetamide]-dihydrochloride]: 7.55; “N-{2-[2-(4-Amidinophenyl)-ethyl]-1- methyl-benzimidazol-5-yl}-N-( - naphthylmethylamino)-[2-(4- trifluoromethylbenzylamino)- acetamide]-dihydrochloride [Example 44]”: 7.51. Turning to `Cn1c(CCc2ccc(C(=N)N)cc2)nc2cc(N(Cc3cccc4ccccc34)C(=O)CNCc3cccc(C(=N)N)c3)ccc21` [Example 46, N-{2-[2-(4-Amidinophenyl)-ethyl]-1-methyl-benzimidazol-5-yl}-N-( - naphthylmethyl)-[2-(3-amidinobenzylamino)-acetamide]-trihydrochloride], the pIC50 was 7.57. Regarding `CN(C)CCNCC(=O)N(Cc1cccc2ccccc12)c1ccc2c(c1)nc(CCc1ccc(C(=N)N)cc1)n2C` [Example 76], the pIC50 was 7.66. The same measure for `CN(CC(=O)N(Cc1cccc2ccccc12)c1ccc2c(c1)nc(CCc1ccc(C(=N)N)cc1)n2C)Cc1cccc(C(=N)N)c1` [Example 18, N-{2-[2-(4-Amidinophenyl)-ethyl-1-methyl-benzimidazol-5-yl}-N-(- naphthylmethylamino)-N-methyl-N-[3-amidinobenzyl]-acetamide-trihydrochloride]: 7.92. The same measure for `CN(C(=O)CCc1ccc(C(=N)N)cc1)c1ccc2c(c1)nc(CCc1ccc(C(=N)N)cc1)n2C` [Example 1, N-{2-[2-(4-Amidinophenyl)-ethyl]-1-methyl-benzimidazol-5-yl}-N-methyl-[3-(4-amidinophenyl)-propionamide]dihydrochloride]: 7.19.

Take `Cn1c(CCc2ccc(C(=N)N)cc2)nc2cc(N(Cc3cccc4ccccc34)C(=O)C=Cc3ccccn3)ccc21` [Example 67, N-{2-[2-(4-Amidinophenyl)-ethyl]-1-methyl-benzimidazol-5-yl}-N-( - naphthylmethyl)-[3-(pyridin-2-yl)-acrylamide]-hydrochloride]: the pIC50 is 7.41. As for `Cn1c(CCc2ccc(C(=N)N)cc2)nc2cc(N(Cc3ccccc3)C(=O)CCc3ccc(C(=N)N)cc3)ccc21` [Example 12, N-{2-[2-(4-Amidinophenyl)-ethyl]-1-methyl-benzimidazol-5-yl}-N-benzyl-[3-(4-amidinophenyl)-propionamide]-dihydrochloride], the negative logarithm of the IC50 (pIC50) is 7.52. The same measure for `CN(C)CCCC(=O)N(Cc1ccccc1)c1ccc2c(c1)nc(CCc1ccc(C(=N)N)cc1)n2C` [Example 37, N-{2-[2-(4-Amidinophenyl)-ethyl]-1-methyl-benzimidazol-5-yl}-N-benzyl-[4-dimethyl-amino-butanoic acid amide]-dihydrochloride]: 7.12.

Take `CCOC(=O)c1ccc(CNCC(=O)N(Cc2cccc3ccccc23)c2ccc3c(c2)nc(CCc2ccc(C(=N)N)cc2)n3C)cc1` [Example 65, N-{2-[2-(4-Amidinophenyl)-ethyl]-1-methyl-benzimidazol-5-yl}-N-( - naphthylmethyl)-[2-(4-ethylcarboxylatbenzylamino)-acetamide]-dihydrochloride]: the negative-log IC50 (pIC50) was 7.57. Next, `Cn1c(CCc2ccc(C(=N)N)cc2)nc2cc(N(Cc3c4ccccc4cc4ccccc34)C(=O)CCC3CCN(Cc4ccccc4)CC3)ccc21` [Example 56, N-{2-[2-(4-Amidinophenyl)-ethyl]-1-methyl-benzimidazol-5-yl}-N-(anthracen-9-ylmethyl)-[3-(1-benzyl-piperidin-4-yl)-propionamide]-dihydro-chloride]: 7.04; `Cn1c(CCc2ccc(C(=N)N)cc2)nc2cc(N(Cc3ccccc3)C(=O)CCCCN)ccc21` [Example 32, N-{2-[2-(4-Amidinophenyl)-ethyl]-1-methyl-benzimidazol-5-yl}-N-benzyl-[5-amino-pentanoic acid amide]-dihydrochloride]: 7.24.

With `Cn1c(CCc2ccc(C(=N)N)cc2)nc2cc(N(Cc3cccc4ccccc34)C(=O)CCC3CCN(Cc4ccccc4)CC3)ccc21` [Example 35, N-{2-[2-(4-Amidinophenyl)-ethyl]-1-methyl-benzimidazol-5-yl}-N-( - naphthylmethyl)-[3-(1-benzyl-piperidin-4-yl)-propionamide]-dihydro-chloride], the pIC50 is 7.85.
